Laboratory results taken from patent publication US20140288044A1, “COMPOSITIONS AND THERAPEUTIC USES OF IKK-RELATED KINASE EPSILON AND TANKBINDING KINASE 1 INHIBITORS” (Alzheimer's Institute of America, Inc., priority 2011, published 2014).
Read-outs that look alike come from different tables or passages of the source.

Key:
IKKε = biological target: T1, IKKε (Homo sapiens, UniProt Q14164); test: In-vitro IKKε kinase assay (radiolabelled ATP, filterplate); assay type: biochemical
T1 construct: His-tag (in-house Sf9 preparation) or GST-tag (purchased Invitrogen preparation); these are alternatives, not both on one protein; host or cells: Sf9 cells
T1 sequence (Q14164 1-716): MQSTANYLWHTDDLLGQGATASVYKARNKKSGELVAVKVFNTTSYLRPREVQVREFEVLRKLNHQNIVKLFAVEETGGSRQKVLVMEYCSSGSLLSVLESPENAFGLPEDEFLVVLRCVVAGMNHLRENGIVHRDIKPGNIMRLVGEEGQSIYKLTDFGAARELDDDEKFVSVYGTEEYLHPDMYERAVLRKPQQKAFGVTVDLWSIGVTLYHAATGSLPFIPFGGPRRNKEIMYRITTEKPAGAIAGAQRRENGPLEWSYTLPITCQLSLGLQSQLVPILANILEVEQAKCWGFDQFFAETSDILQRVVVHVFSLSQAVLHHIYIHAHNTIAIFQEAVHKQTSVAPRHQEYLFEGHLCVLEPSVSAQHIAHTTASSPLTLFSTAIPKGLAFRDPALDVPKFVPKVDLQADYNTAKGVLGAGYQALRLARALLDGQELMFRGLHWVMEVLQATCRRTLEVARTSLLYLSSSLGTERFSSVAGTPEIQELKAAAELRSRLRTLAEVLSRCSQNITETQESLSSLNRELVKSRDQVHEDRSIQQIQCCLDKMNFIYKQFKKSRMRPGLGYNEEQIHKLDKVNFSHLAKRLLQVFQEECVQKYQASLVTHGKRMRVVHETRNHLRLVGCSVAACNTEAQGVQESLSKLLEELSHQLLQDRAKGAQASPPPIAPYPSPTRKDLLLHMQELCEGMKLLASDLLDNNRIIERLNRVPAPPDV
How it was run: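 His-tagged IKKε from Sf9 cells or GST-tagged IKKε, with myelin basic protein, casein or dephosphorylated casein as substrate and 32 μM ATP (2× Km) plus [γ^33]ATP. "Normal" assay used 0.1 μg/ml enzyme; "sensitized" used 0.015 μg/ml with dephosphorylated casein only. Stopped after 30–45 min with phosphoric acid; P-81 filter counts normalized to DMSO after background subtraction.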

[1] = system: RANTES secretion by prostate cancer DU145 cells; test: ELISA to detect secreted RANTES, prostate cancer DU145 cells; assay type: cell-based; conditions: Homo sapiens, DU-145; DU145 cells, 20 hours; read-out: IC50, inhibition of the secretion of RANTES
Procedure: Prostate cancer DU145 cells were seeded at 20,000 cells/well in a 96-well tissue culture plate. The following day media was removed and replaced with complete media containing IKKε/TBK1 inhibitor (starting concentration 25 μM, 1:3 dilutions, final DMSO 0.05%). Cells were incubated for 20 hours and culture supernatant used to determine secreted RANTES levels using a commercially available ELISA kit (R & D Systems, Minneapolis, Minn.).

[2] = system: IKKε-mediated phosphorylation of IRF3; test: ELISA for in-situ phosphorylation of IRF3 (phospho-Ser396) in HEK293T cells cotransfected with IRF3 and IKKε; assay type: cell-based; conditions: Homo sapiens, HEK-293T, 20 h, HEK293T cells, 20 hours, read-out: IC50, in-situ IKKε-mediated phosphorylation of IRF3
How it was run: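 HEK293T cells cotransfected with IRF3 and IKKε were treated with compound for 20 h, and lysates were assayed by ELISA for phospho-Ser396 IRF3, normalized to DMSO. Viability was checked in parallel by CellTiter-Glo. For TBK1, cells cotransfected with IRF7 and TBK1 were treated overnight and probed by Western blot for phospho-Ser477/Ser479 IRF7.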

[3] = "sensitized" assay, read-out: IC50, inhibition of the kinase activity of IKKε
[4] = in-vitro IKKε kinase inhibition assays, given as 0.005 μM (5 nM), read-out: IKKε kinase inhibitory activity (IC50 value)
[5] = range given from about 1 μM to about 250 nM

Row | SMILES | IC50 (IKKε; [4]) [nM] | IC50 [1] [nM] | IC50 [2] [nM] | IC50 [2, 5] [nM] | IC50 (IKKε; [3]) [nM]
1 | N#Cc1cc(-c2ccnc(Nc3cccnc3)n2)ccc1OC1CCOCC1 [Example Compound 11, 5-[2-(Pyridin-3-ylamino)pyrimidin-4-yl]-2-(tetrahydro-2H-pyran-4-yloxy)benzonitrile] | < 5 | 60 to 125 | – | – | < 5
2 | N#Cc1cc(-c2ccnc(Nc3cnc(N4CCOCC4)nc3)n2)ccc1OC1CCOCC1 [Example Compound 2, 5-(2-{[2-(Morpholin-4-yl)pyrimidin-5-yl]amino}pyrimidin-4-yl)-2-(tetrahydro-2H-pyran-4-yloxy)benzonitrile] | – | 60 to 125 | – | – | –
3 | COCCOC1CN(C(=O)c2ccc(Nc3nccc(-c4ccc(OC5CCOCC5)c(C#N)c4)n3)cn2)C1 [Example Compound 28, 5-{2-[(6-{[3-(2-Methoxyethoxy)azetidin-1-yl]carbonyl}pyridin-3-yl)amino]pyrimidin-4-yl}-2-(tetrahydro-2H-pyran-4-yloxy)benzonitrile] | – | 60 to 125 | 1000 to 5000 | – | –
4 | CN(Cc1ccc(Nc2nccc(-c3ccc(OC4CCOCC4)c(C#N)c3)n2)cn1)C(=O)CO [Example Compound 58, N-{[5-({4-[3-Cyano-4-(tetrahydro-2H-pyran-4-yloxy)phenyl]pyrimidin-2-yl}amino)pyridin-2-yl]methyl}-2-hydroxy-N-methylacetamide] | < 5 | – | 100 to 250 | – | –
5 | N#Cc1cc(-c2ccnc(Nc3ccc(C(=O)N4CCCC4)nc3)n2)ccc1OC1CCOCC1 [Example Compound 29, 5-(2-{[6-(Pyrrolidin-1-ylcarbonyl)pyridin-3-yl]amino}pyrimidin-4-yl)-2-(tetrahydro-2H-pyran-4-yloxy)benzonitrile] | < 5 | – | 100 to 250 | – | < 5
6 | CN(Cc1ccc(Nc2nccc(-c3ccc(OC4CCOCC4)c(C#N)c3)n2)cn1)C(=O)C1(O)CC1 [Example Compound 59, N-{[5-({4-[3-Cyano-4-(tetrahydro-2H-pyran-4-yloxy)phenyl]pyrimidin-2-yl}amino)pyridin-2-yl]methyl}-1-hydroxy-N-methylcyclopropanecarboxamide] | < 5 | – | – | 250 to 1000 | –
7 | N#Cc1cc(-c2ccnc(Nc3ccnc(N4CCOCC4)c3)n2)ccc1OC1CCOCC1 [Example Compound 44, 5-(2-{[2-(Morpholin-4-yl)pyridin-4-yl]amino}pyrimidin-4-yl)-2-(tetrahydro-2H-pyran-4-yloxy)benzonitrile] | < 5 | – | < 100 | – | < 5
8 | C[C@@H](O)C(=O)N(C)Cc1ccc(Nc2nccc(-c3ccc(OC4CCOCC4)c(C#N)c3)n2)cn1 [Example Compound 57, (2R)—N-{[5-({4-[3-Cyano-4-(tetrahydro-2H-pyran-4-yloxy)phenyl]pyrimidin-2-yl}amino)pyridin-2-yl]methyl}-2-hydroxy-N-methylpropanamide] | < 5 | – | – | 250 to 1000 | –
9 | N#Cc1cc(-c2ccnc(Nc3ccnc(N4CCC[C@@H]4CO)c3)n2)ccc1OC1CCOCC1 [Example Compound 37, 5-[2-({2-[(2R)-2-(Hydroxymethyl)pyrrolidin-1-yl]pyridin-4-yl}amino)pyrimidin-4-yl]-2-(tetrahydro-2H-pyran-4-yloxy)benzonitrile] | < 5 | – | 100 to 250 | – | –
10 | N#Cc1cc(-c2ccnc(Nc3ccc(/C=C/CN4CCOCC4)nc3)n2)ccc1OC1CCOCC1 [Example Compound 94, 5-[2-({6-[(1E)-3-(Morpholin-4-yl)prop-1-en-1-yl]pyridin-3-yl}amino)pyrimidin-4-yl]-2-(tetrahydro-2H-pyran-4-yloxy)benzonitrile] | < 5 | – | 100 to 250 | – | –
11 | N#Cc1cc(-c2ccnc(Nc3ccnc(N4CCN(CCO)CC4)c3)n2)ccc1OC1CCOCC1 [Example Compound 42, 5-[2-({2-[4-(2-Hydroxyethyl)piperazin-1-yl]pyridin-4-yl}amino)pyrimidin-4-yl]-2-(tetrahydro-2H-pyran-4-yloxy)benzonitrile] | < 5 | – | < 100 | – | < 5
12 | CC(=O)N(C)Cc1ccc(Nc2nccc(-c3ccc(OC4CCOCC4)c(C#N)c3)n2)cn1 [Example Compound 53, N-{[5-({4-[3-Cyano-4-(tetrahydro-2H-pyran-4-yloxy)phenyl]pyrimidin-2-yl}amino)pyridin-2-yl]methyl}-N-methylacetamide] | < 5 | – | 100 to 250 | – | –
13 | CNCc1ccc(Nc2nccc(-c3ccc(OC4CCOCC4)c(C#N)c3)n2)cn1 [Example Compound 52, 5-[2-({6-[(Methylamino)methyl]pyridin-3-yl}amino)pyrimidin-4-yl]-2-(tetrahydro-2H-pyran-4-yloxy)benzonitrile] | < 5 | – | – | 250 to 1000 | < 5

The next lines start with results.

Row | IC50 (IKKε; [4]) [nM] | IC50 [1] [nM] | IC50 [2] [nM] | IC50 [2, 5] [nM] | SMILES | IC50 (IKKε; [3]) [nM]
14 | < 5 | 20 to 60 | – | – | CN(CCO)c1ccc(Nc2nccc(-c3ccc(OCC4CC4)c(C#N)c3)n2)cn1 [Example Compound 111, 2-(Cyclopropylmethoxy)-5-[2-({6-[(2-hydroxyethyl)(methyl)amino]pyridin-3-yl}amino)pyrimidin-4-yl]benzonitrile] | < 5
15 | – | 60 to 125 | – | – | COC1CN(Cc2ccc(Nc3nccc(-c4ccc(NC(=O)C5CC5)c(C#N)c4)n3)cn2)C1 [Example Compound 146, N-{2-Cyano-4-[2-({6-[(3-methoxyazetidin-1-yl)methyl]pyridin-3-yl}amino)pyrimidin-4-yl]phenyl}cyclopropanecarboxamide] | –
16 | – | – | 100 to 250 | – | CC(c1ncc(Nc2nccc(-c3ccc(OC4CCOCC4)c(C#N)c3)n2)cc1F)N1CC(N(C)C)C1 (stereo not shown) [Example Compound 250, 5-{2-[(6-{1-[3-(Dimethylamino)azetidin-1-yl]ethyl}-5-fluoropyridin-3-yl)amino]pyrimidin-4-yl}-2-(tetrahydro-2H-pyran-4-yloxy)benzonitrile] | < 5
17 | – | – | < 100 | – | CC(=O)c1ccc(Nc2nccc(-c3ccc(OC4CCOCC4)c(C#N)c3)n2)cn1 [Example Compound 212, 5-{2-[(6-Acetylpyridin-3-yl)amino]pyrimidin-4-yl}-2-(tetrahydro-2H-pyran-4-yloxy)benzonitrile] | < 5
18 | < 5 | – | 1000 to 5000 | – | Cc1ccc(Nc2nccc(-c3ccc(OC4CCN(C(=O)CO)CC4)c(C#N)c3)n2)cn1 [Example Compound 130, 2-{[1-(Hydroxyacetyl)piperidin-4-yl]oxy}-5-{2-[(6-methylpyridin-3-yl)amino]pyrimidin-4-yl}benzonitrile] | –
19 | – | – | 100 to 250 | – | CC(c1ncc(Nc2nccc(-c3ccc(OC4CCOCC4)c(C#N)c3)n2)cc1F)N1CCOCC1 (stereo not shown) [Example Compound 251] | < 5
20 | – | – | < 100 | – | CC(c1ccc(Nc2nccc(-c3ccc(OC4CCOCC4)c(C#N)c3)n2)cn1)N1CCOCC1 (stereo not shown) [Example Compound 252, 5-[2-({6-[1-(Morpholin-4-yl)ethyl]pyridin-3-yl}amino)pyrimidin-4-yl]-2-(tetrahydro-2H-pyran-4-yloxy)benzonitrile] | < 5
21 | – | – | 1000 to 5000 | – | N#Cc1cc(-c2ccnc(Nc3ccnc(NCCO)c3)n2)ccc1OC1CCN(C(=O)CO)CC1 [Example Compound 239, 2-{[1-(Hydroxyacetyl)piperidin-4-yl]oxy}-5-[2-({2-[(2-hydroxyethyl)amino]pyridin-4-yl}amino)pyrimidin-4-yl]benzonitrile] | < 5
